From PubChem BioAssay (NCI) come the findings set out here.

Several values for one entry are separate records, joined by “and”; a condition that tells them apart may be missing. Identical values can stand only once.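 1) Cells in 96-well plates. 2) Compound, 48 h, 5 concentrations. 3) Linear interpolation between surrounding doses. 4) Unreached endpoint = highest concentration. The concentration for 50% growth inhibition is given as GI50. At the TGI there is no net growth.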 Some results are limits rather than exact numbers.

Some test systems named below: UACC-257 melanoma; NCI/ADR-RES ovarian; SK-MEL-28 melanoma; OVCAR-4 ovarian; COLO 205 colon; HL-60(TB) leukemia; SF-295 CNS; UO-31 renal; NCI-H23 lung; 786-0 renal.
Experiment in all cases: growth of human tumour cells (NCI), 48 h

Consider `CN1CC[C@@H](c2c(O)cc(O)c3c(=O)cc(-c4ccccc4Cl)oc23)[C@@H](O)C1`, for which the GI50 in the assay on UACC-257 melanoma is 125 nM and 137 nM; in the assay on NCI/ADR-RES ovarian it was 256 nM and 76.3 nM; in the assay with SK-MEL-28 melanoma it was 101 nM and 90.2 nM; in the assay with OVCAR-4 ovarian, 170 nM; in the assay on COLO 205 colon, 91.7 nM; in the assay on HL-60(TB) leukemia it was 14.8 nM. Besides, the GI50 with SF-295 CNS was 99.4 nM and 95.5 nM and 42.5 nM; in the assay with UO-31 renal, 71.3 nM and 36.3 nM and 23.8 nM; in the assay with NCI-H23 lung it was 90.8 nM and 103 nM and 45.3 nM; in the assay on 786-0 renal, 108 nM. In addition, the TGI is 366 nM and 619 nM and 282 nM in the assay on UACC-257 melanoma; 294 nM and 1450 nM in the assay with SK-MEL-28 melanoma; 680 nM and 3610 nM in the assay on OVCAR-4 ovarian; 223 nM and 116 nM with COLO 205 colon; 69.3 nM and 338 nM in the assay on HL-60(TB) leukemia; 876 nM and 164 nM and 1180 nM with UO-31 renal. In addition, the TGI in the assay with NCI-H23 lung is 230 nM and 301 nM and 189 nM; in the assay with 786-0 renal, 17900 nM.
Regarding `O=[N+]([O-])C1C(c2ccccc2)C12c1ccccc1-c1ccccc12` (stereo unspecified), the GI50 is 6380 nM with UACC-257 melanoma; 657 nM with NCI/ADR-RES ovarian; 4180 nM in the assay on SK-MEL-28 melanoma; 3560 nM with OVCAR-4 ovarian; 1850 nM with COLO 205 colon; 2120 nM in the assay with HL-60(TB) leukemia. In addition, the GI50 was 598 nM with SF-295 CNS, 2060 nM with UO-31 renal, 2060 nM with NCI-H23 lung and 590 nM with 786-0 renal. In addition, the TGI was 51200 nM with UACC-257 melanoma; greater than 23700 nM with NCI/ADR-RES ovarian; 22500 nM in the assay with SK-MEL-28 melanoma; greater than 100000 nM with OVCAR-4 ovarian; 10900 nM in the assay with COLO 205 colon; greater than 100000 nM with HL-60(TB) leukemia. In addition, the TGI was 43900 nM in the assay on SF-295 CNS, 18800 nM with UO-31 renal, greater than 47200 nM with NCI-H23 lung and 14200 nM in the assay with 786-0 renal.
In the case of `Nc1nc(SCc2ccccn2)c2ncn(C3CCCC3)c2n1`, the TGI with UACC-257 melanoma, in the assay with NCI/ADR-RES ovarian, in the assay with SK-MEL-28 melanoma, with OVCAR-4 ovarian, in the assay with COLO 205 colon and in the assay with HL-60(TB) leukemia was greater than 100000 nM throughout. In addition, the TGI in the assay on SF-295 CNS was greater than 100000 nM; in the assay on UO-31 renal, 32700 nM; in the assay on NCI-H23 lung, greater than 100000 nM; in the assay on 786-0 renal it was greater than 100000 nM.
For `COc1cccc(C2CC(C)(N3CCCC3)Oc3cc4c(cc32)OCO4)c1O` (stereo unspecified), the TGI in the assay on UACC-257 melanoma is greater than 100000 nM; in the assay on NCI/ADR-RES ovarian, 62400 nM; in the assay with SK-MEL-28 melanoma, greater than 51500 nM; in the assay on OVCAR-4 ovarian it was greater than 100000 nM; with COLO 205 colon, 39700 nM; in the assay on HL-60(TB) leukemia, greater than 54200 nM. Besides, the TGI is 59600 nM in the assay on SF-295 CNS, greater than 96300 nM in the assay with UO-31 renal, 71000 nM in the assay on NCI-H23 lung and greater than 100000 nM in the assay with 786-0 renal.
For `O=C1NCc2ccc3c(-c4cccc(Cl)c4)c[nH]c3c21`, the GI50 is greater than 42900 nM in the assay on UACC-257 melanoma; 175 nM in the assay with NCI/ADR-RES ovarian; 2210 nM in the assay on SK-MEL-28 melanoma; 1950 nM with OVCAR-4 ovarian; 297 nM with COLO 205 colon; 146 nM in the assay on HL-60(TB) leukemia. The GI50 is 199 nM in the assay with SF-295 CNS, 465 nM in the assay on UO-31 renal, 484 nM in the assay on NCI-H23 lung and 276 nM in the assay on 786-0 renal. The TGI in the assay with UACC-257 melanoma is greater than 50000 nM; with NCI/ADR-RES ovarian, greater than 50000 nM; in the assay on SK-MEL-28 melanoma, greater than 50000 nM; in the assay on OVCAR-4 ovarian it was greater than 50000 nM; in the assay on SF-295 CNS, greater than 50000 nM; in the assay on UO-31 renal, greater than 23500 nM. Besides, the TGI in the assay on NCI-H23 lung and with 786-0 renal was greater than 50000 nM in each case.
Turning to `O=[N+]([O-])c1ccc(C(c2c[nH]c3ccccc23)c2c[nH]c3ccccc23)cc1`, the TGI in the assay with UACC-257 melanoma was determined as 9790 nM; in the assay with NCI/ADR-RES ovarian, 27500 nM; in the assay on SK-MEL-28 melanoma it was 36100 nM; in the assay with OVCAR-4 ovarian, 28200 nM; with COLO 205 colon, 21800 nM; with HL-60(TB) leukemia it was 49000 nM. Moreover, the TGI in the assay on SF-295 CNS is greater than 100000 nM; in the assay with UO-31 renal, 22900 nM; in the assay on NCI-H23 lung it was 21400 nM; in the assay with 786-0 renal it was 35200 nM.
As to `COc1cc(/C(C#N)=C/c2ccc3c(c2OC)OCO3)cc2c1OCO2`, the GI50 with UACC-257 melanoma is 794 nM; with NCI/ADR-RES ovarian, 34.6 nM; in the assay on SK-MEL-28 melanoma, 1240 nM; in the assay on OVCAR-4 ovarian it was 1450 nM; in the assay on COLO 205 colon, 94.1 nM; with HL-60(TB) leukemia, 31.4 nM. The GI50 in the assay on SF-295 CNS is 42.8 nM; in the assay on UO-31 renal, 2090 nM; with NCI-H23 lung, 162 nM; in the assay on 786-0 renal it was 200 nM. For the same compound, the TGI in the assay on UACC-257 melanoma was greater than 100000 nM; in the assay with NCI/ADR-RES ovarian it was 381 nM; in the assay on SK-MEL-28 melanoma it was greater than 100000 nM; with OVCAR-4 ovarian, greater than 100000 nM; in the assay with COLO 205 colon, 3140 nM; with HL-60(TB) leukemia, 922 nM. Moreover, the TGI was 4360 nM in the assay on SF-295 CNS, greater than 100000 nM in the assay on UO-31 renal, 11600 nM in the assay with NCI-H23 lung and 21500 nM with 786-0 renal.
Turning to `COc1cc(C2C=C(c3cccc(NC(C)=O)c3)Nc3ncnn32)cc(OC)c1OC` (stereo unspecified), the GI50 in the assay on UACC-257 melanoma was greater than 92500 nM; in the assay on NCI/ADR-RES ovarian, 8040 nM; with SK-MEL-28 melanoma, 290 nM; in the assay with OVCAR-4 ovarian, 5800 nM; with COLO 205 colon it was 308 nM; in the assay with HL-60(TB) leukemia, 443 nM. For the same compound, the GI50 in the assay on SF-295 CNS was 229 nM; in the assay with UO-31 renal, 33500 nM; with NCI-H23 lung it was 468 nM; in the assay on 786-0 renal, 615 nM. Moreover, the TGI was greater than 100000 nM with UACC-257 melanoma; 63700 nM with NCI/ADR-RES ovarian; greater than 100000 nM with SK-MEL-28 melanoma; greater than 100000 nM with OVCAR-4 ovarian; 1730 nM in the assay on COLO 205 colon; 2280 nM with HL-60(TB) leukemia. Also, the TGI with SF-295 CNS was greater than 32800 nM; in the assay on UO-31 renal it was greater than 100000 nM; with NCI-H23 lung, greater than 100000 nM; in the assay on 786-0 renal it was greater than 100000 nM.
Regarding `COc1cc2c3c(n(C)c(=O)c2cc1OC)-c1cc2c(cc1/C3=C\CCCCCN)OCO2`, the GI50 in the assay with UACC-257 melanoma is 16800 nM; with NCI/ADR-RES ovarian it was 2600 nM; with SK-MEL-28 melanoma, 33700 nM; in the assay with OVCAR-4 ovarian, 17400 nM; in the assay on COLO 205 colon, 5800 nM; in the assay on HL-60(TB) leukemia it was 2920 nM. Moreover, the GI50 with SF-295 CNS is 887 nM; with UO-31 renal, 2080 nM; with NCI-H23 lung, 1620 nM; in the assay with 786-0 renal it was 979 nM. Further, the TGI in the assay with UACC-257 melanoma was 45900 nM; in the assay on NCI/ADR-RES ovarian, greater than 48800 nM; with SK-MEL-28 melanoma, greater than 100000 nM; in the assay on OVCAR-4 ovarian, greater than 94100 nM; with COLO 205 colon, greater than 100000 nM; with HL-60(TB) leukemia it was 21900 nM. Besides, the TGI with SF-295 CNS was greater than 42400 nM; with UO-31 renal it was greater than 100000 nM; with NCI-H23 lung it was 13300 nM; with 786-0 renal, greater than 50900 nM.
